Measured values: patent US20040116464A1, “Aryl-ethanolamine derivatives as antiviral agents” (priority 2002, published 2004)
Read-outs that look alike come from different tables or passages of the source.

Columns and labels:
HCMV polymerase = target: T1, HCMV polymerase (Human cytomegalovirus, UniProt P08546); test: HCMV polymerase scintillation proximity assay; assay type: biochemical
T1 construct: made in house; host or cells: recombinant baculovirus-infected SF-9 cells
Procedure: The HCMV polymerase assay is performed using a scintillation proximity assay (SPA) as described in several references, such as N. D. Cook, et al., Pharmaceutical Manufacturing International, pages 49-53 (1992); K Takeuchi, Laboratory Practice, September issue (1992); U.S. Pat. No. 4,568,649 (1986); which are incorporated by reference herein. Reactions are performed in 96-well plates. The assay is conducted in 100 μl volume with 5.4 mM HEPES (pH 7.5), 11.7 mM KCl, 4.5 mM MgCl2, 0.36 mg/ml BSA, and 90 nM ^3H-dTTP. Assays are run with and without CHAPS, (3-[(3-Cholamidopropyl)-dimethylammonio]-1-propane-sulfonate) at a final concentration of 2 mM. HCMV polymerase is diluted in enzyme dilution buffer containing 50% glycerol, 250 mM NaCl, 10 mM HEPES (pH 7.5), 100 μg/ml BSA, and 0.01% sodium azide. The HCMV polymerase, which is expressed in recombinant baculovirus-infected SF-9 cells and purified according to literature procedures, is added at 10% (or 10 μl) of the final reaction volume, i.e., 100 μl. Compounds are diluted in 50% DMSO and 10 μl are added to each well. Control wells contain an equivalent concentration of DMSO. Unless noted otherwise, reactions are initiated via the addition of 6 nM biotinylated poly(dA)-oligo(dT) template/primer to reaction mixtures containing the enzyme, substrate, and compounds of interest. Plates are incubated in a 25° C. or 37° C. H2O bath and terminated via the addition of 40 μl/reaction of 0.5 M EDTA (pH 8) per well. Reactions are terminated within the time-frame during which substrate incorporation is linear and varied depending upon the enzyme and conditions used, i.e., 30 min. for HCMV polymerase. Ten (10) μl of streptavidin-SPA beads (20 mg/ml in PBS/10% glycerol) are added following termination of the reaction. Plates are incubated 10 min. at 37° C., then equilibrated to room temperature, and counted on a Packard Topcount. Linear regressions are performed and IC50's are calculated using computer software.
A modified version of the above HCMV polymerase assay is performed as described above, but with the following changes: Compounds are diluted in 100% DMSO until final dilution into assay buffer. In the previous assay, compounds are diluted in 50% DMSO. 4.5 mM Dithiothreitol (DTT) is added to the polymerase buffer.
All results are listed as Polymerase IC50 (μM) values. In Table 1, the term “n.d.” refers to activity data not determined.

HSV polymerase = HSV polymerase (Human herpesvirus 1, UniProt P04293); test: HSV polymerase assay (Table 1); assay type: biochemical
Sequence of HSV polymerase (P04293 whole entry): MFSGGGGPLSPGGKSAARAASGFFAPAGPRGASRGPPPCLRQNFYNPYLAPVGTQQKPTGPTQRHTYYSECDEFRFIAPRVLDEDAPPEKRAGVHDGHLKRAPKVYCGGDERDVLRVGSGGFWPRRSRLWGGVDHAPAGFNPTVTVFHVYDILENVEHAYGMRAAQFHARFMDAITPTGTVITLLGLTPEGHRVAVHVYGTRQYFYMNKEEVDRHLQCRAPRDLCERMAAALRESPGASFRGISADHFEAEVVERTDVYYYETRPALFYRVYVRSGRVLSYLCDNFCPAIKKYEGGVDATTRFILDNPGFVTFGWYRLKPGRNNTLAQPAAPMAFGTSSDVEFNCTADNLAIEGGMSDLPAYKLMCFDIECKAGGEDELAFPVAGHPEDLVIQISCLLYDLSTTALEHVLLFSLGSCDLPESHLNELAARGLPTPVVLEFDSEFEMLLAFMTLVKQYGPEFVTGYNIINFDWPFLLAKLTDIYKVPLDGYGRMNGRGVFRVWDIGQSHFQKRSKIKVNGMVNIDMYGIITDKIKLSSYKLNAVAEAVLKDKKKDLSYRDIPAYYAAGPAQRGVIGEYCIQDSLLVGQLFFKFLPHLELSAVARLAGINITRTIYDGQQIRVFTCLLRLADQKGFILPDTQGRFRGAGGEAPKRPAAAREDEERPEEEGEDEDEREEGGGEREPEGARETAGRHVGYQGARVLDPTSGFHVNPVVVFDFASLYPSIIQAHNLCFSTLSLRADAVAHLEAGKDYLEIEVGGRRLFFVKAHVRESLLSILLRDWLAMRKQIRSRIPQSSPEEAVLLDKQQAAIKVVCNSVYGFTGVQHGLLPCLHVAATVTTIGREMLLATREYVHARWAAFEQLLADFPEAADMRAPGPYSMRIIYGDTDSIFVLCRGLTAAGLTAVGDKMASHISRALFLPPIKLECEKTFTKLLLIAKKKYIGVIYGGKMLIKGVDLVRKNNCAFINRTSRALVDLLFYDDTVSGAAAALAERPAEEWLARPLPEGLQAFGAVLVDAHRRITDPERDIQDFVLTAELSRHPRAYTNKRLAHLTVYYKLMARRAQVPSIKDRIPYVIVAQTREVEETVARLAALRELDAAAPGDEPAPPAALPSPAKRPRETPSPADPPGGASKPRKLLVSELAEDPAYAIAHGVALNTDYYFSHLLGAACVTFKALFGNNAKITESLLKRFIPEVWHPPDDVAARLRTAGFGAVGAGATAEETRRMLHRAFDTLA

VZV polymerase = VZV polymerase (Varicella-zoster virus, UniProt P09252); test: VZV polymerase assay (Table 1); assay type: biochemical
Sequence of VZV polymerase (P09252 whole entry): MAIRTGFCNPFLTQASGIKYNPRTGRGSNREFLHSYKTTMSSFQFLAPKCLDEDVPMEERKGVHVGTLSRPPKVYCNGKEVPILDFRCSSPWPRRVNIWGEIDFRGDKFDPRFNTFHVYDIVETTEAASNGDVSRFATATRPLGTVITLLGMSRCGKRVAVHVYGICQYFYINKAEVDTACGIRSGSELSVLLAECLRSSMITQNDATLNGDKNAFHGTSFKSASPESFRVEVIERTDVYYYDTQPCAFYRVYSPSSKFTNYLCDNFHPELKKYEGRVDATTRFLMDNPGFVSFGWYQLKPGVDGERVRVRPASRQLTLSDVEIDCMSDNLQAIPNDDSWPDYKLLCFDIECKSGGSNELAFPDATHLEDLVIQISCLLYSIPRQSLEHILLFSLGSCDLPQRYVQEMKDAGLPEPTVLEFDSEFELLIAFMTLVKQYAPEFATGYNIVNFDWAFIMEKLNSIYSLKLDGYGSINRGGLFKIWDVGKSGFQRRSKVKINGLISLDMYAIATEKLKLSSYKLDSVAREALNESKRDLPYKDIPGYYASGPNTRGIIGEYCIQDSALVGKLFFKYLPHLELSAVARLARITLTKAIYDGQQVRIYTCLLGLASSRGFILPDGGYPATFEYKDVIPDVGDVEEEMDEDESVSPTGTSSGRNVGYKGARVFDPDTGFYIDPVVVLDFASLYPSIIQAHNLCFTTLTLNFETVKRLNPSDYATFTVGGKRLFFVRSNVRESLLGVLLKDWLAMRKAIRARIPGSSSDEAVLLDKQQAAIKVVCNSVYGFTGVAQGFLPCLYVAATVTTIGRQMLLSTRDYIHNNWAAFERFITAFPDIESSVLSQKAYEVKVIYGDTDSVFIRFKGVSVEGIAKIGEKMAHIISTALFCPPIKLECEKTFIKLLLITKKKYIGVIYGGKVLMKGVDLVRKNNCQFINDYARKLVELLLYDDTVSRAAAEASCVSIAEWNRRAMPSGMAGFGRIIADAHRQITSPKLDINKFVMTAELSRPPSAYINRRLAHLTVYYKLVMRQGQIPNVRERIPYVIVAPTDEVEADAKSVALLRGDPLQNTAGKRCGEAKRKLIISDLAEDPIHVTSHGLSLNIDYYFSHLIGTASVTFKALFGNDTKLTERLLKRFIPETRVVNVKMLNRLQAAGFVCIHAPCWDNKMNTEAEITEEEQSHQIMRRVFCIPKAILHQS

T1 sequence (P08546 whole entry): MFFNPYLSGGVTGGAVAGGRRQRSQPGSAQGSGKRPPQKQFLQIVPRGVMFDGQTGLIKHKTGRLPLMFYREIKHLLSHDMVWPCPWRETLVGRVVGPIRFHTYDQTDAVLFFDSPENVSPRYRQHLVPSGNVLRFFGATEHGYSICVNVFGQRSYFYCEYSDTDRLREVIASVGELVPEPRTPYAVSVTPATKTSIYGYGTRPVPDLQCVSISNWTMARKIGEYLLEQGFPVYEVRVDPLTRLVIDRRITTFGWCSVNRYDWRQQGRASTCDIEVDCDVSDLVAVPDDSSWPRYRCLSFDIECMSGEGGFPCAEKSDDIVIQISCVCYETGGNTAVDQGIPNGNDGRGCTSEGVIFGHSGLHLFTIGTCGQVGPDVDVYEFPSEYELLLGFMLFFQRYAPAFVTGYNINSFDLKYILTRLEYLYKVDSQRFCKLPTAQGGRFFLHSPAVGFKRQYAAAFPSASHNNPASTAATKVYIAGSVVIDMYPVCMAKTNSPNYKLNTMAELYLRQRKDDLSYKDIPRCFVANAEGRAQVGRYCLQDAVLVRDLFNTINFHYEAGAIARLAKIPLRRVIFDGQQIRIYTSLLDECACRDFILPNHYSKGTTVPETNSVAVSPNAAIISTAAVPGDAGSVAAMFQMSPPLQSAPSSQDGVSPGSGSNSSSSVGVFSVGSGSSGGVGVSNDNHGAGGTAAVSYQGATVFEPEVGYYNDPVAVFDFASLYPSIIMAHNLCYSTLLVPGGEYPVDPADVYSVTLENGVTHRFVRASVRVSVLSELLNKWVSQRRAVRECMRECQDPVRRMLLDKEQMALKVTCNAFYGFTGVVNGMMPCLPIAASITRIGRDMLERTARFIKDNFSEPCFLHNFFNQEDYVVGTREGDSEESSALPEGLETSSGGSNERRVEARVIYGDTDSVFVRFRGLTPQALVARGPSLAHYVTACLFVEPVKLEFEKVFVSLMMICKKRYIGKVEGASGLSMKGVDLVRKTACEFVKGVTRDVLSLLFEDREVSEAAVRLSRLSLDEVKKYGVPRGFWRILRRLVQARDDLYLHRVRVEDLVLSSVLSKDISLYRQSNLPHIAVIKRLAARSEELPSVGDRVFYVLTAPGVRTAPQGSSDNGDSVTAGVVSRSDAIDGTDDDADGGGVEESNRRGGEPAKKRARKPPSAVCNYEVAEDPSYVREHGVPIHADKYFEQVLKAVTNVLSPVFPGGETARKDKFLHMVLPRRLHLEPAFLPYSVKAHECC

SMILES	IC50 (HCMV polymerase; read-out: Polymerase IC50 HCMV) [µM]	melting point [°C]	IC50 (HSV polymerase) [µM]	IC50 (VZV polymerase) [µM]	IC50 (HCMV polymerase) [µM]
CCn1cc(C(=O)NCc2ccc(Cl)cc2)c(=O)c2cc(CN(C)C[C@@H](O)c3ccccc3)sc21 [Example 7, N-(4-Chlorobenzyl)-7-ethyl-2-((((2S)-2-hydroxy-2-phenylethyl)(methyl)amino)methyl)-4-oxo-4,7-dihydrothieno[2,3-b]pyridine-5-carboxamide]	0.47	100 to 102	–	–	–
CN(Cc1cc2c(=O)c(C(=O)NCc3ccc(Cl)cc3)cn(C)c2s1)C[C@@H](O)c1ccc(C#N)cc1 (single isomer, unassigned) [Example 10]	0.34	–	–	–	–
CN(Cc1cc2c(=O)c(C(=O)NCc3ccc(Cl)cc3)cn(CC(O)CO)c2s1)C[C@@H](O)c1ccccc1 (stereo partly drawn) [Example 3, N-(4-Chlorobenzyl)-7-(2,3-dihydroxypropyl)-2-((((2S)-2-hydroxy-2-phenylethyl)-(methyl)amino)methyl)-4-oxo-4,7-dihydrothieno[2,3-b]pyridine-5-carboxamide]	1.77	–	–	–	–
CN(Cc1cc2c(=O)c(C(=O)NCc3ccc(Cl)cc3)cn(C)c2s1)C[C@@H](O)c1ccc([N+](=O)[O-])cc1 (single isomer, unassigned) [Example 14]	0.62	181 to 183	1.72	–	–
CN(Cc1cc2c(=O)c(C(=O)NCc3ccc(Cl)cc3)cn(CCO)c2s1)C[C@@H](O)c1ccccc1 [Example 5, N-(4-Chlorobenzyl)-7-(2-hydroxyethyl)-2-((((2S)-2-hydroxy-2-phenylethyl)-(methyl)amino)methyl)-4-oxo-4,7-dihydrothieno[2,3-b]pyridine-5-carboxamide]	2.02	–	–	–	–
CN(Cc1cc2c(=O)c(C(=O)NCc3ccc(Cl)cc3)cn(CCCO)c2s1)C[C@@H](O)c1ccccc1 [Example 4, N-(4-chlorobenzyl)-2-((((2S)-2-hydroxy-2-phenylethyl)(methyl)amino)methyl)-7-(3-hydroxypropyl)-4-oxo-4,7-dihydrothieno[2,3-b]pyridine-5-carboxamide]	–	–	–	–	1.4
CCCn1cc(C(=O)NCc2ccc(Cl)cc2)c(=O)c2cc(CN(C)C[C@@H](O)c3ccccc3)sc21 [Example 8, N-(4-Chlorobenzyl)-2-((((2S)-2-hydroxy-2-phenylethyl)(methyl)amino)methyl)-4-oxo-7-propyl-4,7-dihydrothieno[2,3-b]pyridine-5-carboxamide]	0.62	45 to 48	–	–	–

Second part, led by results:

IC50 (HCMV polymerase; read-out: Polymerase IC50 HCMV) [µM]	melting point [°C]	IC50 (HSV polymerase) [µM]	IC50 (VZV polymerase) [µM]	SMILES	IC50 (HCMV polymerase) [µM]
0.32	105 to 106	–	–	COCCn1cc(C(=O)NCc2ccc(Cl)cc2)c(=O)c2cc(CN(C)C[C@@H](O)c3ccccc3)sc21 [Example 9, N-(4-Chlorobenzyl)-2-((((2S)-2-hydroxy-2-phenylethyl)(methyl)amino)methyl)-7-(2-methoxyethyl)-4-oxo-4,7-dihydrothieno[2,3-b]pyridine-5-carboxamide]	–
0.1	–	0.21	0.11	CN(Cc1cc2c(=O)c(C(=O)NCc3ccc(Cl)cc3)cn(C)c2s1)C[C@@H](O)c1cccc(C#N)c1 (single isomer, unassigned) [Example 11]	–
0.05	–	0.2	0.08	CN(Cc1cc2c(=O)c(C(=O)NCc3ccc(Cl)cc3)cn(C)c2s1)C[C@@H](O)c1ccc(O)cc1 [Example 1, N-(4-Chlorobenzyl)-2-((((2S)-2-hydroxy-2-(4-hydroxyphenyl)ethyl)(methyl)-amino)methyl)-7-methyl-4-oxo-4,7-dihydrothieno[2,3-b]pyridine-5-carboxamide]	–
0.13	–	0.58	0.2	CN(Cc1cc2c(=O)c(C(=O)NCc3ccc(Cl)cc3)cn(C)c2s1)C[C@@H](O)c1ccc(CO)cc1 (single isomer, unassigned) [Example 13]	–
0.06	–	0.16	0.09	COc1cccc([C@H](O)CN(C)Cc2cc3c(=O)c(C(=O)NCc4ccc(Cl)cc4)cn(C)c3s2)c1 (single isomer, unassigned) [Example 6]	–
0.21	–	0.62	0.23	CN(Cc1cc2c(=O)c(C(=O)NCc3ccc(Cl)cc3)cn(C)c2s1)C[C@@H](O)c1ccc(N(C)C)cc1 (single isomer, unassigned) [Example 12]	–
